Source: patent US7989518B2, “Synthetic biocompatible material having an improved oxidation resistance, process for preparing the same and prosthetic articles obtained therefrom” (priority 2006, dated 2011)

Experiments:
[1] = Thermal stability of Lipoic Acid inside UHMWPE, by FTIR spectra; assay type: physicochemical; conditions: UHMWPE with 0.5% wt lipoic acid heated at 150° C. for 2 hours or 200° C. for 24 hours
Procedure: UHMWPE GUR 1050 (Ticona Inc, Bayport, Tex., USA) in powder form was mixed with 0.5 weight % of Lipoic Acid in powder form (Talamonti, Italy, stock n. 1050919074). The mixture was then moulded in a cell at 160° C. and at a pressure of 200 MPa. The purpose of these examples was to investigate the presence and stability of Lipoic Acid inside UHMWPE with which it was pre-mixed. UHMWPE commonly melts at 138° C., but Lipoic Acid melts at about 65° C. Therefore, to check the Lipoic Acid stability into the UHMWPE at high temperatures a Lipoic Acid-doped UHMWPE was tested at 150° C. and 200° C. […] Line B represents the spectrum of UHMWPE doped with LA, heated at 150° C. for 2 hours, then cooled at room temperature, in which the spectrum of pure UHMWPE was detracted as baseline.

[2] = Oxidation stability after gamma irradiation and aging, by FTIR oxidation index; assay type: physicochemical; conditions: 0.5 weight % in UHMWPE
Procedure: UHMWPE GUR 1050 (Ticona Inc, Bayport, Tex., USA) in powder form was mixed with 0.5 weight % of Lipoic Acid in powder form (Talamonti, Italy, stock n. 1050919074). The mixture was then moulded in a cell at 160° C. and at a pressure of 200 MPa.
A comparative sample was made with the same UHMWPE GUR 1050 only, namely without mixing it with lipoic acid.
Each sample of UHMWPE, virgin and doped with lipoic acid, was gamma irradiated to a dose of 30 kGy (Isomedix, Northborough, Mass.), then was processed into cylindrical pins of 20 mm length and 9 mm diameter.
Each sample, virgin and doped, was then aged at 80° C. in a convection oven for 5 weeks, in air (ASTM standard F2003-02). After aging and oxidation, thin sections of […] thickness of each sample were prepared using a Leitz Wetzlar Sledge Microtome (Leica, Nussloch, Germany). The irradiated and aged sections of cylindrical pins samples were then analysed by means of Fourier Transform Infrared Spectroscopy (FTIR). The IR analysis was performed using a Nicolet Magna 860 spectrometer.
The effect of aging on the oxidation of virgin UHMWPE and UHMWPE doped with lipoic acid is shown in FIG. 2 and FIG. 3, respectively. An oxidation index OI was defined as the ratio of the area under 1740 cm^−1 carbonyl and 1370 cm^−1 methylene absorbance peaks.

[3] = cited from earlier work

O=C(O)CCCCC1CCSS1 (centres unmarked) [Lipoic Acid, Lipoic acid]
stability of Lipoic Acid (FTIR spectrum) [1]: substantially unchanged | stability of Lipoic Acid (FTIR spectrum) ([1]; listed as lipoic acid): stable | antioxidant effectiveness in UHMWPE [2]: effective as antioxidant | toxicity on human beings ([3]; 100 to 600 mg/day for 3 to 6 months): low toxicity | side effects ([3]; dose of 50 mg/day): no side effect reported
